Measurements taken from the supplement of paper PMC11061612.

Tests used:
Experiment in all cases: combination Emax (second highest fraction inhibited in the dose matrix, 72 h); higher = more inhibition; extreme values may be limits of the assay
[1] = test system: BL-41 (Burkitt's Lymphoma)
Summary of the method: (§1)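 Cell lines in DMEM/F12 or RPMI with 10% FBS were plated in 1536-well plates, held 24 hours at 37°C, 5% CO2, then given two-drug dose matrices for 72 hours (DMSO typically 0.2%). Viability was read by CellTiter-Glo 2.0 luminescence and scaled as inhibition from 0 (vehicle wells) to 1 (blank wells). Combination Emax is the second-highest inhibition in the matrix; Bliss excess is observed combination effect minus expected EA + EB − EA·EB, EA and EB being single-agent effects.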

[2] = test system: COLO-678 (Colorectal Carcinoma)
Summary of the method: as §1

[3] = test system: DND-41 (T-Lymphoblastic Leukemia)
Summary of the method: as §1

[4] = test system: DiFi (Colorectal Carcinoma)
Summary of the method: as §1

[5] = test system: ES1 (Ewing's Sarcoma)
Summary of the method: as §1

[6] = test system: EVSA-T (Breast Carcinoma)
Summary of the method: as §1

[7] = test system: KARPAS-45 (T-Lymphoblastic Leukemia)
Summary of the method: as §1

[8] = test system: KM12 (Colorectal Carcinoma)
Summary of the method: as §1

[9] = test system: KYSE-180 (Esophageal Squamous Cell Carcinoma)
Summary of the method: as §1

[10] = test system: L-540 (Hodgkin's Lymphoma)
Summary of the method: as §1

[11] = test system: LN-18 (Glioblastoma)
Summary of the method: as §1

[12] = test system: MEL-JUSO (Melanoma)
Summary of the method: as §1

[13] = test system: MS751 (Cervical Carcinoma)
Summary of the method: as §1

[14] = test system: NCI-H847 (Small Cell Lung Carcinoma)
Summary of the method: as §1

[15] = test system: SR (Other Blood Carcinomas)
Summary of the method: as §1

[16] = test system: SU-DHL-8 (B-Cell Non-Hodgkin's Lymphoma)
Summary of the method: as §1

[17] = test system: TC-71 (Ewing's Sarcoma)
Summary of the method: as §1

[18] = test system: TE-6 (Esophageal Squamous Cell Carcinoma)
Summary of the method: as §1

[19] = test system: WIL2-NS (Non-Cancerous)
Summary of the method: as §1

[20] = test system: WM-115 (Melanoma)
Summary of the method: as §1

Row | Structure (SMILES) | combination Emax [1] | combination Emax [2] | combination Emax [3] | combination Emax [4] | combination Emax [5] | combination Emax [6] | combination Emax [7] | combination Emax [8] | combination Emax [9] | combination Emax [10] | combination Emax [11] | combination Emax [12] | combination Emax [13] | combination Emax [14] | combination Emax [15] | combination Emax [16] | combination Emax [17] | combination Emax [18] | combination Emax [19] | combination Emax [20]
1 | CC(=O)Nc1cccc(-n2c(=O)n(C3CC3)c(=O)c3c(Nc4ccc(I)cc4F)n(C)c(=O)c(C)c32)c1 [Trametinib] + Cc1nc(-c2cn3c(n2)-c2ccc(-c4cnn(C(C)(C)C(N)=O)c4)cc2OCC3)n(C(C)C)n1 [Taselisib] (first compound max 1 µM, 7x7, partner max 10 µM) | 0.319 | 0.608 | 0.369 | 1 | 0.651 | 0.947 | 0.755 | 0.84 | 0.638 | 0.36 | 0.847 | 0.863 | 0.438 | 0.782 | 0.719 | 0 | 0.714 | 0.908 | 0.723 | 0.951
2 | C=CCn1c(=O)c2cnc(Nc3ccc(N4CCN(C)CC4)cc3)nc2n1-c1cccc(C(C)(C)O)n1 [AZD1775] + C1CN(CCC1(C(=O)N[C@@H](CCO)C2=CC=C(C=C2)Cl)N)C3=NC=NC4=C3C=CN4 [Capivasertib] (first compound max 3 µM, partner max 3 µM) | 0.993 | 0.51 | 0.899 | 0.643 | 0.797 | 0.958 | 0.962 | 0.872 | 0.8 | 0.862 | 0.581 | 0.442 | 0.899 | 1 | 0.999 | 0.953 | 0.92 | 0.736 | 0.953 | 0.536
3 | CCN(CCO)CCCOc1ccc2c(Nc3cc(CC(=O)Nc4cccc(F)c4)[nH]n3)ncnc2c1 [AZD2811] + O=C(c1cc(Cc2n[nH]c(=O)c3ccccc23)ccc1F)N1CCN(C(=O)C2CC2)CC1 [Olaparib] (first compound max 1 µM, 7x7, partner max 10 µM) | 0.603 | 0.153 | 0.369 | 0.516 | 0.855 | 0.31 | 0.882 | 0.176 | 0.176 | 0.509 | 0.287 | 0.243 | 0.243 | 0.956 | 0.875 | 0.738 | 0.755 | 0.212 | 0.397 | 0.259
4 | COc1cccc(OCCCN)c1-c1cc(Nc2cnc(C#N)cn2)n[nH]1 [Prexasertib] + O=C(c1cc(Cc2n[nH]c(=O)c3ccccc23)ccc1F)N1CCN(C(=O)C2CC2)CC1 [Olaparib] (first compound max 1 µM, 7x7, partner max 10 µM) | 1 | 0.169 | 0.85 | 0.924 | 1 | 0.433 | 0.979 | 0.756 | 0.983 | 0.975 | 0.807 | 0.686 | 0.465 | 1 | 0.996 | 0.943 | 0.987 | 0.476 | 1 | 0.556
5 | CC1(C)CCC(CN2CCN(c3ccc(C(=O)NS(=O)(=O)c4ccc(NCC5CCOCC5)c([N+](=O)[O-])c4)c(Oc4cnc5[nH]ccc5c4)c3)CC2)=C(c2ccc(Cl)cc2)C1 [Venetoclax] + C[C@@H](Nc1cc(F)cc(F)c1)c1cc(C(=O)N(C)C)cc2c(=O)cc(N3CCOCC3)oc12 [AZD8186] (first compound max 1 µM, 7x7, partner max 3 µM) | 0.257 | 0.119 | 0.921 | 0.178 | 0.395 | 0.79 | 0.833 | 0.0675 | 0.107 | 0.661 | 0.378 | 0.0937 | 0.169 | 0.844 | 0.81 | 0.254 | 0.147 | 0.289 | 0.772 | 0.447
6 | C=CCn1c(=O)c2cnc(Nc3ccc(N4CCN(C)CC4)cc3)nc2n1-c1cccc(C(C)(C)O)n1 [AZD1775] + C[C@@H]1COCCN1C2=NC(=NC(=C2)C3(CC3)[S@](=N)(=O)C)C4=C5C=CNC5=NC=C4 [AZD6738] (first compound max 1 µM, partner max 10 µM) | 1 | 0.199 | 0.929 | 0.895 | 0.948 | 0.483 | 1 | 0.852 | 0.939 | 0.941 | 0.736 | 0.496 | 0.428 | 1 | 1 | 0.903 | 0.941 | 0.669 | 1 | 0.595
7 | COc1cccc(OCCCN)c1-c1cc(Nc2cnc(C#N)cn2)n[nH]1 [Prexasertib] + Cc1cc2ncnn2cc1Nc1ncc2c(n1)n(C1CCOCC1)c(=O)n2C [AZD7648] (first compound max 1 µM, 7x7, partner max 10 µM) | 1 | 0.0565 | 0.844 | 0.864 | 1 | 0.358 | 0.981 | 0.796 | 0.974 | 0.962 | 0.75 | 0.712 | 0.453 | 1 | 1 | 0.968 | 0.945 | 0.554 | 1 | 0.59
8 | COc1cccc(OCCCN)c1-c1cc(Nc2cnc(C#N)cn2)n[nH]1 [Prexasertib] + CCc1c2c(nc3ccc(O)cc13)-c1cc3c(c(=O)n1C2)COC(=O)[C@]3(O)CC [SN-38] (first compound max 1 µM, 7x7, partner max 0.3 µM) | 1 | 0.26 | 0.943 | 0.931 | 1 | 0.986 | 1 | 0.939 | 1 | 0.95 | 1 | 0.707 | 0.984 | 1 | 0.998 | 1 | 1 | 0.884 | 1 | 0.514
9 | Cc1c2c(nn1C)CSCc1cc(n(C)n1)CSc1cc(c3ccccc3c1)OCCCc1c(C(=O)O)n(C)c3c-2c(Cl)ccc13 [AZD5991] + C[C@@H]1COCCN1C2=NC(=NC(=C2)C3(CC3)[S@](=N)(=O)C)C4=C5C=CNC5=NC=C4 [AZD6738] (first compound max 1 µM, 7x7, partner max 10 µM) | 1 | 0.241 | 0.9 | 0.923 | 1 | 1 | 1 | 0.746 | 0.979 | 1 | 0.842 | 0.684 | 0.901 | 0.994 | 1 | 1 | 0.987 | 0.817 | 0.969 | 0.471
10 | CC1(C)CCC(CN2CCN(c3ccc(C(=O)NS(=O)(=O)c4ccc(NCC5CCOCC5)c([N+](=O)[O-])c4)c(Oc4cnc5[nH]ccc5c4)c3)CC2)=C(c2ccc(Cl)cc2)C1 [Venetoclax] + Cc1cc2ncnn2cc1Nc1ncc2c(n1)n(C1CCOCC1)c(=O)n2C [AZD7648] (first compound max 1 µM, 7x7, partner max 10 µM) | 0.17 | 0.16 | 0.885 | 0.246 | 0.46 | 0.305 | 0.6 | 0.21 | 0.142 | 0.787 | 0.378 | 0.183 | 0.191 | 0.735 | 0.82 | 0.354 | 0.262 | 0.432 | 0.77 | 0.238
11 | Cc1c2c(nn1C)CSCc1cc(n(C)n1)CSc1cc(c3ccccc3c1)OCCCc1c(C(=O)O)n(C)c3c-2c(Cl)ccc13 [AZD5991] + CN(C)CCCOc1ccc(-c2ccc3ncc4c(c3c2)n(C2CCOCC2)c(=O)n4C)cn1 [AZD0156] (first compound max 1 µM, 7x7, partner max 1 µM) | 1 | 0.152 | 0.158 | 0.252 | 0.753 | 1 | 0.913 | 0.27 | 0.934 | 1 | 0.514 | 0.439 | 0.859 | 0.57 | 0.96 | 0.692 | 0.463 | 0.792 | 0.388 | 0.244
12 | COc1cccc2c1C(=O)c1c(O)c3c(c(O)c1C2=O)C[C@@](O)(C(=O)CO)C[C@@H]3O[C@H]1C[C@H](N)[C@H](O)[C@H](C)O1 [Doxorubicin] + Cc1cc2ncnn2cc1Nc1ncc2c(n1)n(C1CCOCC1)c(=O)n2C [AZD7648] (first compound max 1 µM, 7x7, partner max 10 µM) | 1 | 0.715 | 0.889 | 0.701 | 1 | 0.787 | 0.337 | 0.936 | 0.858 | 0.931 | 0.33 | 0.328 | 0.891 | 0.961 | 0.994 | 0.943 | 0.965 | 0.322 | 1 | 0.678
